Broadly, the IC50 is the concentration at which inhibition is half-maximal. Read a high IC50 as weaker potency.

The values that follow come from PMC12709667 (Journal of Clinical Pharmacology, 2025).

In one data set the test system is fatty liver disease. The note with it: cited from earlier work.
The next data set deals with CYP2C19 (Homo sapiens, UniProt P33261). The data set is described as follows: DDI victim study with fluvoxamine. The data set is classed as in vivo. The note with it: with strong CYP2C19 inhibitor fluvoxamine.
Sequence of CYP2C19 (P33261 whole entry): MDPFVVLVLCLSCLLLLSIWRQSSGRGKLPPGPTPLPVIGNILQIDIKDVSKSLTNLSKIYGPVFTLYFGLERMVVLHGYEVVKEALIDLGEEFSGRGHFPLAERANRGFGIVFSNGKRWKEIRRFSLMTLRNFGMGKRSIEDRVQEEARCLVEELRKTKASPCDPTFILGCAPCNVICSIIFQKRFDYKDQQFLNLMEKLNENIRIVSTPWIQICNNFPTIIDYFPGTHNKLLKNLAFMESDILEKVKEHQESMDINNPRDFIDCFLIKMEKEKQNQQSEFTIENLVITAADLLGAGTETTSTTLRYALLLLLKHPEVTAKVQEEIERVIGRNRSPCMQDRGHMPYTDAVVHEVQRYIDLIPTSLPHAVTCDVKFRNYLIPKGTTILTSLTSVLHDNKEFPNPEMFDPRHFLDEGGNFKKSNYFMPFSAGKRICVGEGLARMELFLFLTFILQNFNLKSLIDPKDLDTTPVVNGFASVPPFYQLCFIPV
In a further data set the target is T1, UGT1A1 (Homo sapiens, UniProt P22309).
T1 sequence (P22309 26-533): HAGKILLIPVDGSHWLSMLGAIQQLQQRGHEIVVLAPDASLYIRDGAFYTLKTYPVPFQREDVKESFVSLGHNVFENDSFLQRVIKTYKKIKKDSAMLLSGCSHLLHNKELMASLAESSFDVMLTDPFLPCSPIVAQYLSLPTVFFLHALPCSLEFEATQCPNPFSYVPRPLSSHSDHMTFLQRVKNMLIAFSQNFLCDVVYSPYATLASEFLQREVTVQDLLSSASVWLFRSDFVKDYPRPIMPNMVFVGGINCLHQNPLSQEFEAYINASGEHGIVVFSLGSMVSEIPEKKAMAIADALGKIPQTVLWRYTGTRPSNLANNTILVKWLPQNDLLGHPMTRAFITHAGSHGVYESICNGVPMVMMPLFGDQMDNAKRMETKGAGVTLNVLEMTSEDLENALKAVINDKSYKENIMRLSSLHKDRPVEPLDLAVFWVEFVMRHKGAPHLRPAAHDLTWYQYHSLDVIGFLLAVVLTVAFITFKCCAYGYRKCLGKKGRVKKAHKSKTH
The data set is described as follows: Phase 2 enzyme inhibition. Format: in vitro ADME.

For data set [1], the target named is T2, CYP1A2 (Homo sapiens, UniProt P05177).
T2 sequence (P05177 1-516): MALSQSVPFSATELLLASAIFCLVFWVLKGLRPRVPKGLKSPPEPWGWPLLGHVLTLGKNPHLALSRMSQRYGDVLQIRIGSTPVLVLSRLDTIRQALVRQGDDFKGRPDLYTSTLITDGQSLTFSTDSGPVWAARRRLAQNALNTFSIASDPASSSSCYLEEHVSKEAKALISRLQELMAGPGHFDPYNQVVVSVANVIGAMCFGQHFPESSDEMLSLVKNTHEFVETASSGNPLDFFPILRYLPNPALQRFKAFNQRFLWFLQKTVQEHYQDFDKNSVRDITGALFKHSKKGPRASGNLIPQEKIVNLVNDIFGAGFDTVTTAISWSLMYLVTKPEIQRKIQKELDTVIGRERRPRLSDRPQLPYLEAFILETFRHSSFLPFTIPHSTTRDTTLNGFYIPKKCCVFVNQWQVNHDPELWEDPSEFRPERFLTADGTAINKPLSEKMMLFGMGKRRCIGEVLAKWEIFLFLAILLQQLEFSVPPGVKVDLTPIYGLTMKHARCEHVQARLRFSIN
The data set is classed as in vitro ADME.

Data set [2] has as its system CYP1A2. The data set is classed as in vitro ADME, human. The note with it: up to 10 µM, three donors.
The next data set addresses T3, UGT1A3 (Homo sapiens, UniProt P35503).
T3 sequence (P35503 29-534): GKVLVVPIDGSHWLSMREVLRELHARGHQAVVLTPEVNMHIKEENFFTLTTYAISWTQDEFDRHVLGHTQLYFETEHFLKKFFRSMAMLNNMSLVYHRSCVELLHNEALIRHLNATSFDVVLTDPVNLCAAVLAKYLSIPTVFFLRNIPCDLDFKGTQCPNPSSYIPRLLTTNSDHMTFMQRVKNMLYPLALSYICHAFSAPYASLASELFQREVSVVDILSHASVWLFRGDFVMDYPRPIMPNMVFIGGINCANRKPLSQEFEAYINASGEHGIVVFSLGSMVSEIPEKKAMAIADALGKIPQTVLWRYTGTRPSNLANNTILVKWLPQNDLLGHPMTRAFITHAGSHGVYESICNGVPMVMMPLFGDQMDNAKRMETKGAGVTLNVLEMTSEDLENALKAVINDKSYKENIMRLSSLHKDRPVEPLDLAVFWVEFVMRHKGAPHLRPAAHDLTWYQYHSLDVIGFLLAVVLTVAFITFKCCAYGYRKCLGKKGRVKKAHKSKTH
The data set is described as follows: Phase 2 enzyme substrate assessment. The data set is classed as in vitro ADME.

The target in the next data set is T4, CYP2C8 (Homo sapiens, UniProt P10632).
T4 sequence (P10632 1-490): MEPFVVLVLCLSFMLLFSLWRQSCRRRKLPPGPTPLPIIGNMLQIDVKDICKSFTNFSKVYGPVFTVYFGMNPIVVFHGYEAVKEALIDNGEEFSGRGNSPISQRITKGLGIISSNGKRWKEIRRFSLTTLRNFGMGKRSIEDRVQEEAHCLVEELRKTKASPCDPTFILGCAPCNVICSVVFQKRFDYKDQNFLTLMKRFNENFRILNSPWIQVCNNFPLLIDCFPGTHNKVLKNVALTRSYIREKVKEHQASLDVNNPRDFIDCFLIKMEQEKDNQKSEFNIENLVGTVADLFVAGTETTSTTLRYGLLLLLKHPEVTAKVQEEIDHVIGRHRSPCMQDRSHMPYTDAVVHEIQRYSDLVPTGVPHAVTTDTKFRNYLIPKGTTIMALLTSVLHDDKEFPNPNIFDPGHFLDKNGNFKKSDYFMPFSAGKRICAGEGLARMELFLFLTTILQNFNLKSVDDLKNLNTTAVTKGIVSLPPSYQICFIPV
The experiment in a line: Cytochrome P450 inhibition. Format: in vitro ADME.

In a further data set the target is CYP2C9 (Homo sapiens, UniProt P11712). The data set is described as follows: DDI perpetrator study: tolbutamide probe. The conditions noted are these: miricorilant 400 mg once daily as perpetrator. Format: in vivo.
Sequence of CYP2C9 (P11712 whole entry): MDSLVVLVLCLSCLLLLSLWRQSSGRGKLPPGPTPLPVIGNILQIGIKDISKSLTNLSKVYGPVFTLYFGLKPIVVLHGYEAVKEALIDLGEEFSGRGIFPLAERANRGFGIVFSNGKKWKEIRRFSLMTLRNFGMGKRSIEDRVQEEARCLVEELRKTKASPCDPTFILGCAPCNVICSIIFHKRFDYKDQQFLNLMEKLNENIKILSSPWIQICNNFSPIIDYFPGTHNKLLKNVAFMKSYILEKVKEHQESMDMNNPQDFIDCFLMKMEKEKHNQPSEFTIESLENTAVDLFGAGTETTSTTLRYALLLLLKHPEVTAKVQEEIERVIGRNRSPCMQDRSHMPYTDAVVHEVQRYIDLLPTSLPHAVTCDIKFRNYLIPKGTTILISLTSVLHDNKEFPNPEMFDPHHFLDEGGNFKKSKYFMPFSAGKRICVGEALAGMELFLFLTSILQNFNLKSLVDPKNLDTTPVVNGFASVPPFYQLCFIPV
The target of the next data set is MDR1/P-gp (Homo sapiens, UniProt P08183). The data set is described as follows: Transporter substrate assessment. Format: in vitro ADME.
Sequence of MDR1/P-gp (P08183 whole entry): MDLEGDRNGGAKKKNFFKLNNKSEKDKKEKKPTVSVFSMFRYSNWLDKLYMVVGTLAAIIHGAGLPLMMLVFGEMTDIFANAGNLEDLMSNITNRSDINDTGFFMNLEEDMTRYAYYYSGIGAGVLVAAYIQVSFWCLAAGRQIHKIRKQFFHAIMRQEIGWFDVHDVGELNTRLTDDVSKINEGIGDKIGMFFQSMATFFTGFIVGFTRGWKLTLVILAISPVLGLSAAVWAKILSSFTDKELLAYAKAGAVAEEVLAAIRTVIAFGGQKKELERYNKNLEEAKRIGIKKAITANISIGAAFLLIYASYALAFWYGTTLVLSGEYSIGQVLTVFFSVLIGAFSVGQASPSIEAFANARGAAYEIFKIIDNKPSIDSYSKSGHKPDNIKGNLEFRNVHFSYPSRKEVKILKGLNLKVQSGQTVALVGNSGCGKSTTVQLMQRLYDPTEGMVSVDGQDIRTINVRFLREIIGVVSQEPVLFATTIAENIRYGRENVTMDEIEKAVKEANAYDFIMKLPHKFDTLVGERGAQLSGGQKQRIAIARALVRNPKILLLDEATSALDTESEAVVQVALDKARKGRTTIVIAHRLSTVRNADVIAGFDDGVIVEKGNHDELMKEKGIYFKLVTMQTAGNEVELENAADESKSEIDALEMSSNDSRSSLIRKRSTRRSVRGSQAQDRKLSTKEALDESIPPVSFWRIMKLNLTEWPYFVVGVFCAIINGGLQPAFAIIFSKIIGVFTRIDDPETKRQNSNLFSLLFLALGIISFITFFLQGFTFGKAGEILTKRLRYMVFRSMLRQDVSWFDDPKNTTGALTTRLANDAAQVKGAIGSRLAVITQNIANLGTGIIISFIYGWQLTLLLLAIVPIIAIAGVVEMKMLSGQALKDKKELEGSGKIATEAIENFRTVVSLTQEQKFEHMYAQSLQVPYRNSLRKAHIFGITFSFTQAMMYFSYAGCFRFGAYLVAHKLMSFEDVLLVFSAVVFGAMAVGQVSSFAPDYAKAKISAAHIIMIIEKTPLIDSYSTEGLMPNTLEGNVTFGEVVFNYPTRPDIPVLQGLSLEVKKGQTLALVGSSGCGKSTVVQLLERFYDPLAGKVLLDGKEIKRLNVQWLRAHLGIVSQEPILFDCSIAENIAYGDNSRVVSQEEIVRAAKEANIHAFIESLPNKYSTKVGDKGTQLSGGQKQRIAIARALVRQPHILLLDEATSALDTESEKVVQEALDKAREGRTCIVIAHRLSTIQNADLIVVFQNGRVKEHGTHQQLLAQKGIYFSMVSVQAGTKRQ

Take `O=c1[nH]c(=O)c(Cc2cccc(C(F)(F)F)c2)c([C@H]2CC[C@H](c3ccccc3)CC2)[nH]1` [miricorilant]: the “efficacy in mouse models of fatty liver disease” value with fatty liver disease is given as “shown efficacy”. At CYP2C19, the “clinical sensitivity as substrate of CYP2C19” value was “moderately sensitive substrate”. The molecule further showed a half-inhibitory concentration (IC50) against UGT1A1 of 1.4 µM. Also, at CYP1A2 [1], the “inhibition of CYP1A2” value is “No inhibition”. Moreover, the “induction of CYP1A2” value in the data set on CYP1A2 [2] is on record as “no induction”. Further, the “Substrate of UGT1A3” value at UGT1A3 is listed as “not a substrate”. In addition, on CYP2C8, 7.5 µM corresponded to half-maximal inhibition (IC50) and the “time dependence of CYP2C8 inhibition” value was “not time dependent”. Besides, at CYP2C9, the “clinical inhibition of CYP2C9” value is on record as “does not inhibit”. Further, the “Substrate of MDR1/P-gp” value on MDR1/P-gp was “not a substrate”.
